Reference: patent US8338404B2, “Composition and method for reducing allergen” (Kyowa Hakko Bio Co., Ltd., priority 2007, dated 2012)

Target: T1, mite allergen Derf2 (Dermatophagoides farinae, UniProt Q00855)
T1 construct: mite allergen Derf2 contained in standard house dust; from tissue; host or cells: standard house dust (natural mite allergen, not recombinant)
T1 sequence (Q00855 18-146): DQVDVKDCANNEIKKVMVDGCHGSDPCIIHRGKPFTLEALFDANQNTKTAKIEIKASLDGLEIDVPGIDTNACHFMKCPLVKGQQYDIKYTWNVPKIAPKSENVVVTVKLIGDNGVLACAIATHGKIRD
Assay: Effects of processed fiber for reducing mite allergen (sandwich ELISA)
Format: biochemical
Settings: 5% treatment solution, 1 hour; for Mite allergen concentration: 1 ml mite allergen buffer
Experimental: At the outset, anti-Derf2 monoclonal antibody 15E11, which was diluted to 2 μg/ml in phosphate buffer (pH 7.4, containing 0.1% by weight of NaN3) was applied to the F16 Maxisorp Nunc-Immuno Module plate (NUNC) in amounts of 100 μl per well and subjected to sensitization at 4° C. for at least 1 day. After sensitization, the liquid was removed, a blocking reagent (1% by weight of bovine serum albumin and phosphate buffer (pH 7.2, containing 0.1% by weight of NaN3)) was added in amounts of 100 μl per well, and the reaction was allowed to proceed at 37° C. for 60 minutes. After the reaction, the plate was washed in phosphate buffer (pH 7.2, containing 0.1% by weight of polyoxyethylene (20) sorbitan monolaurate). Subsequently, the sample resulting from the reaction of mite allergens with the aforementioned solution was added dropwise thereto in amounts of 100 μl per well, and the reaction was allowed to proceed at 37° C. for 60 minutes.
After the reaction, the plate was washed in phosphate buffer (pH 7.2, containing 0.1% by weight of polyoxyethylene (20) sorbitan monolaurate). The peroxidase-labeled anti-Derf2 monoclonal antibody was dissolved to 200 μg/ml in distilled water, the resultant was diluted 1,000-fold with phosphate buffer (pH 7.2, containing 1% by weight of bovine serum albumin and 0.1% by weight of polyoxyethylene (20) sorbitan monolaurate), and the resulting solution was added in amounts of 100 μl per well. The reaction was allowed to proceed at 37° C. for 60 minutes, and the plate was first washed with phosphate buffer (pH 7.2, containing 0.1% by weight of polyoxyethylene (20) sorbitan monolaurate) and then with distilled water. Ortho-phenylenediamine dihydrochloride (26 mg tablet, Sigma Chemical Co.) and a hydrogen peroxide solution (13 μl) were added to 13 ml of 0.1 mol/l phosphate buffer (pH 6.2), the resultant was added in amounts of 100 μl per well, and the reaction was allowed to proceed at 37° C. for 5 minutes. Immediately thereafter, 50 μl each of 2 mol/l H2SO4 was introduced so as to terminate the reaction, and the absorbance (OD 490 nm) was assayed using a microplate spectrophotometer (Bio-Rad Laboratories Inc.)
The allergen-reducing fabric obtained in Example 8 was tested in terms of the effects of allergen reduction. As a control, a white cotton broadcloth and polyethylene terephthalate (PET) cloth were soaked via a padding method in an aqueous solution of 5% tannic acid (an equivalent of JP Patent Publication (kokai) No. 61-44821 A (1986)), the clothes were dried at 110° C. for 2 minutes, and the resultants were tested in terms of the effects of allergen reduction.
The clothes (5 cm×5 cm each) were introduced into reclosable plastic bags, 1 ml of phosphate buffer (pH 7.2) of mite allergen was added thereto, and the resultants were allowed to stand for 1 hour. The centrifuged samples were subjected to enzyme immunoassay (i.e., sandwich ELISA) in the same manner as in Test Example 1 to inspect the effects of reducing mite allergen Derf2.

[1] = PET cloth 5 cm×5 cm, not treated: 970 ng/ml
[2] = cotton broadcloth 5 cm×5 cm, not treated: 720 ng/ml

Structure (SMILES)	Mite allergen concentration [1]	Reduction (PET cloth 5 cm×5 cm)	Mite allergen concentration [2]	Reduction (cotton broadcloth 5 cm×5 cm)
CC(=O)N1C[C@H](O)C[C@H]1C(=O)O [N-acetyl-trans-4-hydroxy-L-proline]	2.3 ng/mL	99.8%	3.5 ng/mL	99.5%
O=C(OC[C@H]1O[C@@H](OC(=O)c2cc(O)c(O)c(OC(=O)c3cc(O)c(O)c(O)c3)c2)[C@H](OC(=O)c2cc(O)c(O)c(OC(=O)c3cc(O)c(O)c(O)c3)c2)[C@@H](OC(=O)c2cc(O)c(O)c(OC(=O)c3cc(O)c(O)c(O)c3)c2)[C@@H]1OC(=O)c1cc(O)c(O)c(OC(=O)c2cc(O)c(O)c(O)c2)c1)c1cc(O)c(O)c(OC(=O)c2cc(O)c(O)c(O)c2)c1 [tannic acid]	190 ng/mL	80%	120 ng/mL	83%
